Experimental data from patent publication US20240148714A1, “Triple Negative Breast Cancer Treatment Method” (Exelixis, Inc., priority 2016, published 2024).
Entries after “also recorded” stand apart in the source; their conditions may differ.

How the values were obtained:
[1] = test system: circulating mononuclear cells; test: Circulating cell biomarkers by flow cytometry in serial blood samples; format: in vivo, human
Experimental: Experimental design: In this single-arm, two-stage phase 2 study, patients with metastatic TNBC with measurable disease by RECIST and up to 3 lines of prior chemotherapy for metastatic disease received cabozantinib 60 mg daily on a 21-day cycle. Patients were restaged 6 weeks following treatment initiation and every 9 weeks thereafter. The primary endpoint was objective response rate (ORR). Predefined secondary endpoints included progression free survival (PFS) and toxicity. Here, we examined cellular biomarkers using flow cytometry in serial blood samples collected at days 0 (baseline/pre-treatment), 8, 22, 43, and 64 of cabozantinib treatment. Mixed effect models were used to evaluate the changes of biomarker levels over time from baseline to day 64. Wilcoxon signed rank test were used to evaluate whether the change of biomarker levels from baseline to day 8 were different by clinical benefit. Adjusted p-values controlling false discovery rate were used to adjust for multiple comparisons.
The primary endpoint was the activity of cabozantinib, as defined by objective response rate (ORR) in patients with mTNBC. Predefined secondary endpoints included progression-free survival (PFS), toxicity, and pain. Correlative studies included analysis of MET and phospho-MET expression in archival tumor tissue, and molecular and cellular biomarkers of cabozantinib. Cellular biomarkers were examined using flow cytometry in serial blood samples collected at days 0 (baseline/pre-treatment), 8, 22, 43, and 64 of cabozantinib treatment. Mixed effect models were used to evaluate the changes of biomarker levels over time from baseline to day 64. Wilcoxon signed rank test were used to evaluate whether the change of biomarker levels from baseline to day 8 were different by clinical benefit. Adjusted p-values controlling false discovery rate were used to adjust for multiple comparisons.
Circulating Biomarker Assays: Potential biomarkers of cabozantinib activity were identified by measuring plasma proteins at baseline, on day 8 of therapy, on day 1 of each cycle of therapy, and, if available, at the time of progression. Eight milliliters of blood was collected in purple top (plasma EDTA) vacutainers and shipped on wet ice to a Clinical Laboratory Improvement Amendments-certified core in the Steele Laboratories (Massachusetts General Hospital), where whole blood was separated by centrifugation into cellular fraction and plasma. The fraction of stem/progenitor cell, lymphocyte, and myeloid populations of total circulating mononuclear cells were counted by flow cytometry using a LSR-II cytometer and FACSDiva software in fresh blood samples using the following markers: CD3, CD4, CD8, CD14, CD25, CD34, CD45, CD56, CD127, and CD133 (Becton Dickinson, Franklin Lakes, NJ, www.bd.com). Plasma was prepared in the standard fashion and stored at −78° C. until collection and analysis of all samples. The biomarkers measured included VEGF, placental growth factor (PlGF), VEGF-C, VEGF-D, soluble VEGFR1 (sVEGFR1), basic fibroblast growth factor (bFGF), and sTie-2 (using a 7-plex Growth Factor array) and granulocyte-macrophage colony stimulating factor (GM-CSF), interferon gamma (IFN-g), tumor necrosis factor alpha (TNF-a), and interleukin-1beta (IL-1b), IL-2, IL-6, IL-8, IL-10, and IL-12 heterodimer p70 (using a 9-plex Inflammatory Factor array; both Meso Scale Discovery, Gaithersburg, MD, www.mesoscale.com); and HGF, sMET, carbonic anhydrase IX (CAIX), stromal cell-derived factor 1 a (SDF1a), and sVEGFR2 by single analyte enzyme-linked immunosorbent assay (R&D Systems, Minneapolis, MN, www.rndsystems.com).
Descriptive statistics were used to summarize biomarker values at protocol-specific time points. […] The Wilcoxon signed rank test assessed biomarker change from day 1 to 8. Mixed effects linear models assessed the change in biomarker values at days 1, 8, 22, 43, and 64; values beyond day 64 were not analyzed because of the small number of patients still on protocol. […]

[2] = Participant-reported pain questionnaire and analgesic use; format: in vivo, human
Experimental: Study Design and Treatment: As indicated, this was a single-arm, two-stage phase II study assessing the efficacy of cabozantinib monotherapy in patients with mTNBC. Treatment consisted of oral dosing of cabozantinib at 60 mg daily over a 21-day cycle. Patients underwent radiographic restaging at 6 weeks and every 9 weeks thereafter. Patients with complete or partial RECIST responses continued to receive study treatment, whereas those with progressive disease were taken off study. Dose reductions for toxicity occurred if patients experienced grade 3 or 4 neutropenia or thrombocytopenia, or nonhematologic adverse events. From the starting dose of 60 mg daily, doses were reduced as needed to 40 and 20 mg daily. For the purposes of determining the effect of cabozantinib treatment on pain and analgesic medication use, pain was assessed by a participant-reported questionnaire, and daily analgesic medication usage was recorded. These were completed at baseline and during week 3, 6, and every 6 weeks thereafter until the date of the participant's last follow-up visit.

[3] = after cabozantinib, baseline to day 64

COc1cc2nccc(Oc3ccc(NC(=O)C4(C(=O)Nc5ccc(F)cc5)CC4)cc3)c2cc1OC [cabozantinib]
CD3+ (lymphocytes), Median ([1]; Day 1 (baseline)): 34.73 % of WBC | CD3 + CD8 − CD4 + CD25+, Median ([1]; Day 1 (baseline)): 0.66 % of WBC | CD3 + CD8 − CD4 + CD25−, Median ([1]; Day 1 (baseline)): 11.41 % of WBC | CD3 + CD8 − CD4+, Median ([1]; Day 1 (baseline)): 0.15 % of WBC | CD3 + CD56+ (NKT cells), Median ([1]; Day 1 (baseline)): 0.77 % of WBC | CD3 − CD56+ (NK cells), Median ([1]; Day 1 (baseline)): 5.84 % of WBC | CD14+ (monocytes), Median ([1]; Day 1 (baseline)): 42.20 % of WBC | CD34 + CD133+ cells, Median ([1]; Day 1 (baseline)): 0.17 % of WBC | CD3+ (lymphocytes), Median ([1]; Day 8): 24.06 % of WBC | CD3 + CD8 − CD4 + CD25+, Median ([1]; Day 8): 0.79 % of WBC | CD3 + CD8 − CD4 + CD25−, Median ([1]; Day 8): 14.18 % of WBC | CD3 + CD8 − CD4+, Median ([1]; Day 8): 0.17 % of WBC | CD3 + CD56+ (NKT cells), Median ([1]; Day 8): 0.85 % of WBC | CD3 − CD56+ (NK cells), Median ([1]; Day 8): 7.27 % of WBC | CD14+ (monocytes), Median ([1]; Day 8): 31.44 % of WBC | CD34 + CD133+ cells, Median ([1]; Day 8): 0.11 % of WBC | CD3+ (lymphocytes), Median ([1]; Day 22): 33.56 % of WBC | CD3 + CD8 − CD4 + CD25+, Median ([1]; Day 22): 0.59 % of WBC | CD3 + CD8 − CD4 + CD25−, Median ([1]; Day 22): 16.41 % of WBC | CD3 + CD8 − CD4+, Median ([1]; Day 22): 0.18 % of WBC | CD3 + CD56+ (NKT cells), Median ([1]; Day 22): 0.54 % of WBC | CD3 − CD56+ (NK cells), Median ([1]; Day 22): 8.51 % of WBC | CD14+ (monocytes), Median ([1]; Day 22): 19.03 % of WBC | CD34 + CD133+ cells, Median ([1]; Day 22): 0.12 % of WBC | CD3+ (lymphocytes), Median ([1]; Day 43): 32.79 % of WBC | CD3 + CD8 − CD4 + CD25+, Median ([1]; Day 43): 0.73 % of WBC | CD3 + CD8 − CD4 + CD25−, Median ([1]; Day 43): 17.71 % of WBC | CD3 + CD8 − CD4+, Median ([1]; Day 43): 0.19 % of WBC | CD3 + CD56+ (NKT cells), Median ([1]; Day 43): 1.02 % of WBC | CD3 − CD56+ (NK cells), Median ([1]; Day 43): 6.50 % of WBC | CD14+ (monocytes), Median ([1]; Day 43): 24.79 % of WBC | CD34 + CD133+ cells, Median ([1]; Day 43): 0.18 % of WBC | CD3+ (lymphocytes), Median ([1]; Day 64): 30.99 % of WBC | CD3 + CD8 − CD4 + CD25+, Median ([1]; Day 64): 0.61 % of WBC | CD3 + CD8 − CD4 + CD25−, Median ([1]; Day 64): 15.29 % of WBC | CD3 + CD8 − CD4+, Median ([1]; Day 64): 0.19 % of WBC | CD3 + CD56+ (NKT cells), Median ([1]; Day 64): 0.98 % of WBC | CD3 − CD56+ (NK cells), Median ([1]; Day 64): 8.13 % of WBC | CD14+ (monocytes), Median ([1]; Day 64): 23.48 % of WBC | CD34 + CD133+ cells, Median ([1]; Day 64): 0.11 % of WBC | change in CD4+ cells (CD3+CD4+CD8− T) [1, 3]: trend for increase; also recorded: nonsignificant trend toward increase | change in CD14+ monocytes [1, 3]: persistent decrease | change in CD56+ NK cells (CD3−CD56+ NK lymphocytes) [1, 3]: trend for increase; also recorded: nonsignificant trend toward increase | change in circulating CD3+ cells [1, 3]: significant increase; also recorded: persistent increase | change in circulating CD8+ T cells (CD3+CD4−CD8+ T lymphocytes) [1, 3]: significant increase | change in fraction of CD3+CD56+ NKT cells ([1]; baseline to day 64): no significant changes | change in fraction of CD4+CD25+ Tregs ([1]; baseline to day 64): no significant changes | change in fraction of CD4+CD127+ memory T cells ([1]; baseline to day 64): no significant changes | change in fraction of CD133+ progenitor/stem cells ([1]; baseline to day 64): no significant changes | effect on circulating cell biomarkers (summary) ([1]; metastatic TNBC patients): systemic changes consistent with activation of the immune system | patients reporting a decrease in pain since baseline ([2]; of 21 patients with pain at entry who completed a survey): 52% | patients with decreased pain who discontinued pain medications ([2]; of the eleven with decreased pain): 10 patients
